ChEMBL document CHEMBL4477154, “Gersemiols A-C and Eunicellol A, Diterpenoids from the Arctic Soft Coral Gersemia fruticosa” (2016)
Values after ≈ are worked out from the molar mass of the structure shown. Active and inactive are the calls of the source. The rule behind the calls is not given here.

What was measured:
HepG2 = experiment: Cytotoxicity against human HepG2 cells assessed as cell growth inhibition at 15 ug/ml after 72 hrs by MTT assay; format: functional, cell-based
MIA PaCa-2 = experiment: Cytotoxicity against human MIAPaCa2 cells assessed as cell growth inhibition at 15 ug/ml after 72 hrs by MTT assay; format: functional, cell-based
A549 = experiment: Cytotoxicity against human A549 cells assessed as cell growth inhibition at 15 ug/ml after 72 hrs by MTT assay; format: functional, cell-based
HT-29 = experiment: Cytotoxicity against human HT-29 cells assessed as cell growth inhibition at 15 ug/ml after 72 hrs by MTT assay; format: functional, cell-based
MCF7 = experiment: Cytotoxicity against human MCF7 cells assessed as cell growth inhibition at 15 ug/ml after 72 hrs by MTT assay; format: functional, cell-based
Staphylococcus aureus = experiment: Antibacterial activity against methicillin-resistant Staphylococcus aureus after 20 hrs by spectrophotometry; format: functional

Row | Compound | growth inhibition (GI) (HepG2) | growth inhibition (GI) (MIA PaCa-2) | growth inhibition (GI) (A549) | growth inhibition (GI) (HT-29) | growth inhibition (GI) (MCF7) | MIC50 (Staphylococcus aureus)
1 | CC1=CCC[C@]2(C)CC[C@@]3(O)[C@@H]([C@@H](C(C)C)CC[C@@H]3C)[C@H]12 | inactive | inactive | inactive | inactive | inactive | –
2 | CC1=CCC[C@]2(C)CC[C@@H]3[C@@H]([C@@H](C(C)C)CC[C@]3(C)O)[C@H]12 | inactive | inactive | inactive | inactive | inactive | –
3 | C=C1CCC[C@]2(C)CC[C@@]3(O)[C@@H]([C@@H](C(C)C)CC[C@@H]3C)[C@H]12 | inactive | inactive | inactive | inactive | inactive | 48 µg/mL (≈ 165 µM)
